According to US11958821B2, “Phenethylamine compounds salts, polymorphic forms and methods of use thereof” (Terran Biosciences Inc., priority 2021, dated 2024):

Tests used:
[1] = Hygroscopicity of MDMA salts at 75% RH, visual assessment after 24 hours; format: physicochemical; details: visual assessment after exposure to 75% RH (room temp) for 24 hours
Protocol: A small amount of each salt was placed in a glass vial and exposed to 75% relative humidity for 24 hours. […] That is, the solids remained free flowing.
All materials having a unique X-ray powder diffraction (XRPD) pattern were characterized by differential scanning calorimetry (DSC), thermogravimetric analysis (TG), and ^1H nuclear magnetic resonance (NMR) spectroscopy. The hygroscopicity of each salt at 75% RH was also evaluated. The water solubility of each salt was estimated by adding water in aliquots to weighed portions of solid at room temperature while sonicating. Whether dissolution had occurred was judged by visual inspection after addition of each solvent aliquot. Solubility numbers were calculated by dividing the weight of the sample by the total amount of solvent used to dissolve the sample. The actual solubilities may be greater than the numbers calculated because of the use of solvent aliquots that were too large or because of slow dissolution rates.

[2] = Estimated solubility of MDMA salts (solvent added in aliquots, visual inspection); format: physicochemical
[3] = Dynamic vapor sorption (DVS) analysis with post-DVS XRPD; format: physicochemical; details: for Hygroscopicity by DVS: 25° C., 5 to 95% RH; for Post-DVS XRPD (form change): solids after DVS analysis; for Hygroscopic?: based on moisture uptake at 95% observed during DVS analysis
Protocol: DVS analysis was carried out using a TA Instruments Q5000 Dynamic Vapor Sorption analyzer. The instrument was calibrated with standard weights and a sodium bromide standard for humidity. Approximately 5-25 mg of sample was loaded into a metal-coated quartz pan for analysis. The sample was analyzed at 25° C. with a maximum equilibration time of one hour in 10% relative humidity (RH) steps from 5 to 95% RH (adsorption cycle) and from 95 to 5% RH (desorption cycle). The movement from one step to the next occurred either after satisfying the equilibrium criterion of 0.01% weight change or, if the equilibrium criterion was not met, after one hour. The percent weight change values were calculated using Microsoft Excel®.

[4] = Physical stability of MBDB salts at 40° C./75% RH; format: physicochemical
Protocol: During the screen, a single crystal Maleate 1 of sufficient size and quality was obtained from a vapor diffusion experiment with ethanol and hexane. The crystal structure is reported elsewhere but the data confirmed the anhydrous/unsolved nature of the material. […] Two new crystalline forms of MBDB Maleate were observed during the screening designated as MBDB Maleate 2 and MBDB Maleate 3 (FIG. 96, 97). Additional characterization of these samples was conducted to better understand the nature of the materials produced, as shown below. MBDB Maleate 2 was generated once from a cooling crystallization from dioxane. The proton nuclear magnetic resonance (NMR) spectrum was consistent with a monomaleate salt of MBDB and contained residual dioxane. Only a limited amount of material was recovered so the only additional characterization that could be completed was differential scanning calorimetry (DSC). The DSC thermogram appears consistent with an anhydrous/unsolvated form with a likely melt at 96° C. (FIG. 100). […] An attempt was made to reproduce Maleate 2 using the same conditions and seeds of Maleate 2. PXRD analysis of the recovered solids however was consistent with Maleate 1. MBDB Maleate 3 was isolated from an evaporation experiment involving chloroform and ethyl acetate. NMR analysis of the material was consistent with a mono-maleate salt of MBDB. Thermal analysis was consistent with an anhydrous/unsolvated material with a likely melting point of 73° C. (FIG. 101). […] No additional characterization was completed on this sample due to the limited amount of material that was recovered.

Male Sprague-Dawley rats [5] = experiment: Rat elevated zero-maze study with racemic MBDB, R-MBDB, S-MBDB and chlordiazepoxide; details: positive control, 6 mg/kg ip
Source text: Two opposite quadrants are enclosed by Perspex walls on both the inner and the outer edges of the platform, while the remaining two opposite quadrants are open being enclosed only by a Perspex “lip”. Animals will show a preference for the closed areas, and avoidance of the open sections is assumed to stem from a rodent's natural aversion to open, exposed spaces. A reduction in the amount of activity on the open areas is considered to reflect an increase in anxiety. The ethologically-based behavior stretched attend postures (SAP) from closed to open quadrants is assessed as an index of anxiety. […] Animals
(§1) Male Sprague-Dawley 200-250 g (Envigo UK) rats were used. Animals were group-housed (5 per cage; cage size: 40×40×20 cm) in a temperature-controlled environment (22±2° C.), under a 12 h light-dark cycle (lights on: 08:00 hours) for one week prior to testing. Food and water were freely available. Number of animals per group=5.
(§2) The elevated 0-maze comprises a black Perspex annular platform (105 cm diameter, 10 cm width) elevated to 65 cm above ground level, divided equally into four quadrants. Two opposite quadrants are enclosed by clear red Perspex walls (27 cm high) on both the inner and outer edges of the platform, while the remaining two opposite quadrants are surrounded only by a Perspex “lip” (1 cm high) which serves as a tactile guide to animals on these open areas.
Subjects were weighed and tail marked before being injected. After a specified pretreatment time, subjects were placed in a closed quadrant and a 5-min test period were recorded on videotape for subsequent analysis. The maze was cleaned with 5% methanol/water solution and dried thoroughly between test sessions. Behavioural measures comprise percentage time spent on the open areas (% TO) and frequency of stretched attend postures (SAP) from closed to open quadrants. Since the control groups were all treated identically with the same vehicle these were combined to increase power. The Chlordiazepoxide groups were also treated identically with the same dose so these were also combined to increase power. Animals are scored as being in the open area when all four paws were in an open quadrant and in the closed area only when all four paws have passed over the open-closed divide.
Thirty min later at T=0, rats were individually placed in a closed arm of the zero-maze and behavior assessed by a “blind” observer using remote video monitoring over the subsequent 5 min. The animals were then removed and the maze carefully wiped with 5% methanol/water solution before the next test was begun.
Thirty min later at T=0, rats were individually placed in a closed arm of the zero-maze and behavior was assessed by a “blind” observer using remote video monitoring over the subsequent 5 min. The animal were then removed and the maze carefully wiped with 5% methanol/water solution before the next test was begun.
Thirty min later at T=0, rats were individually placed in a closed arm of the zero-maze and behavior was assessed by a “blind” observer using remote video monitoring over the subsequent 5 min.

Male Sprague-Dawley rats [6] = experiment: Rat elevated zero-maze study with racemic MDE, R-MDE, S-MDE and chlordiazepoxide; details: positive control, 6 mg/kg ip
Protocol: A reduction in the amount of activity on the open areas is considered to reflect an increase in anxiety. The ethologically-based behavior, stretched attend postures (SAP) from closed to open quadrants, is assessed as an index of anxiety. […] Animals
as §1, §2
Subjects were weighed and tail marked before being injected. After a specified pretreatment time, subjects were placed in a closed quadrant and a 5-min test period were recorded on videotape for subsequent analysis. The maze was cleaned with 5% methanol/water solution and dried thoroughly between test sessions. Behavioural measures comprise percentage time spent on the open areas (% TO) and frequency of stretched attend postures (SAP) from closed to open quadrants. Animals are scored as being in the open area when all four paws were in an open quadrant and in the closed area only when all four paws have passed over the open-closed divide.
Thirty min later at T=0, rats were individually placed in a closed arm of the zero-maze and behavior was assessed by a “blind” observer using remote video monitoring over the subsequent 5 min. The animal was then removed and the maze carefully wiped with 5% methanol/water solution before the next test was begun.
Thirty min later at T=0, rats were individually placed in a closed arm of the zero-maze and behavior assessed by a “blind” observer using remote video monitoring over the subsequent 5 min. The animal was then removed and the maze carefully wiped with 5% methanol/water solution before the next test was begun.

Male Sprague-Dawley rats [7] = experiment: Rat elevated zero-maze study with MDAI and chlordiazepoxide; format: in vivo; details: positive control, 6 mg/kg ip
Protocol: Three rats from the vehicle group, 3 rats from the 2.5 mg/kg MDAI group, and 3 rats from the CDP group were tested on a separate day from the other rats.

## CNC(C)Cc1ccc2c(c1)OCO2.O=C(O)/C=C\C(=O)O (centres unmarked) [Maleate Form 1]
[1]
  Hygroscopic at 75% RH?: No

## CNC(C)Cc1ccc2c(c1)OCO2.CNC(C)Cc1ccc2c(c1)OCO2.O=C(O)[C@@H](O)[C@H](O)[C@H](O)[C@@H](O)C(=O)O (centres unmarked) [Galactarate (Mucate)]
[1]
  Hygroscopic at 75% RH?: no evidence of hygroscopicity and No

## CNC(C)Cc1ccc2c(c1)OCO2.CNC(C)Cc1ccc2c(c1)OCO2.O=C(O)/C=C/C(=O)O (centres unmarked) [Fumarate]
[2]; 1,4-dioxane
  Solubility: <1000 µg/mL
[2]; 1:1 MeOH:chloroform (CHCl3)
  Solubility: 35000 µg/mL
[2]; 2-propanol (IPA)
  Solubility: <1000 µg/mL
[2]; 95:5 ACN:water
  Solubility: 4000 µg/mL
[2]; 95:5 EtOH:water
  Solubility: 15000 µg/mL
[2]; 95:5 IPA:water
  Solubility: 5000 µg/mL
[2]; 95:5 THF:water
  Solubility: 14000 µg/mL
[2]; 95:5 acetone:water
  Solubility: 2000 µg/mL
[2]; 95:5 dioxane:water
  Solubility: 6000 µg/mL
[2]; acetone
  Solubility: <1000 µg/mL
[2]; acetonitrile (ACN)
  Solubility: <1000 µg/mL
[2]; dichloromethane (DCM)
  Solubility: <1000 µg/mL
[2]; diethyl ether (Et2O)
  Solubility: <1000 µg/mL
[2]; ethanol (EtOH)
  Solubility: 4000 µg/mL
[2]; ethyl acetate (EtOAc)
  Solubility: <1000 µg/mL
[2]; methanol (MeOH)
  Solubility: 47000 µg/mL
[2]; tetrahydrofuran (THF)
  Solubility: <1000 µg/mL
[2]; water
  Solubility: 260000 µg/mL
[1]
  Hygroscopic at 75% RH?: no evidence of hygroscopicity and No
[3]; listed as MDMA Hemi-Fumarate
  Hygroscopicity by DVS: Slightly hygroscopic
[3]; listed as MDMA hemi-fumarate
  Hygroscopicity by DVS: slightly hygroscopic
[3]
  Post-DVS XRPD (form change): Unchanged

## CNC(C)Cc1ccc2c(c1)OCO2.O=C(O)CCC(=O)O (centres unmarked) [Succinate]
[1]
  Hygroscopic at 75% RH?: No

## CNC(C)Cc1ccc2c(c1)OCO2.O=C(O)/C=C\C(=O)O (centres unmarked) [Maleate Form 2]
[1]
  Hygroscopic at 75% RH?: No

## CCC(Cc1ccc2c(c1)OCO2)NC.O=P(O)(O)O (centres unmarked) [Phosphate 1]
[3]
  Hygroscopicity by DVS: hygroscopic
  Hygroscopic?: Hygroscopic
  Post-DVS XRPD (form change): no form change
[4]; 40° C./75% RH overnight
  Physical Stability: No change
[4]; after 1 day at 40° C./75% RH
  Physical Stability: No visible change

## CNC1=Nc2ccc(Cl)cc2C(c2ccccc2)=[N+]([O-])C1 [CDP, Chlordiazepoxide, reference compound]
Male Sprague-Dawley rats [5]
  Frequency of stretched attend postures (SAP): significant reduction in SAPs
  Percentage of time in the open arms (% TO): did not show significance over vehicle
Male Sprague-Dawley rats [6]
  Frequency of stretched attend postures (SAP): significant reduction in SAPs
  Percentage of time spent in the open arms (% TO): significant increase in time in the open arms for the R MDE group and S MDE group only
Male Sprague-Dawley rats [7]
  Frequency of HDIPS: trend towards increased
  Percentage of time in the open arms (% TO): significant increase in the percentage of time in the open arms
  Total line crossings: trend towards increased
  Total open arm entries: trend towards increased

## CCC(Cc1ccc2c(c1)OCO2)NC.O=C(O)CC(O)(CC(=O)O)C(=O)O (centres unmarked) [Citrate 1]
[4]; 40° C./75% RH overnight
  Physical Stability: Tacky solids

## CCC(Cc1ccc2c(c1)OCO2)NC.O=C(O)[C@@H](O)[C@H](O)[C@H](O)[C@@H](O)C(=O)O (centres unmarked) [Galactarate 1]
[4]; 40° C./75% RH overnight
  Physical Stability: No change

## CCC(Cc1ccc2c(c1)OCO2)NC.O=C(O)/C=C/C(=O)O (centres unmarked) [Fumarate 1]
[4]; 40° C./75% RH overnight
  Physical Stability: No change

## CCC(Cc1ccc2c(c1)OCO2)NC.O=C(O)CC(=O)O (centres unmarked) [Malonate 1]
[4]; 40° C./75% RH overnight
  Physical Stability: No change

## CCC(Cc1ccc2c(c1)OCO2)NC.O=C(O)CCC(=O)O (single isomer, unassigned) [Succinate 2]
[3]
  Hygroscopicity by DVS: possible hydrate formation at high RH conditions
  Hygroscopic?: Moderately
[4]; 40° C./75% RH overnight
  Physical Stability: No change

## CCC(Cc1ccc2c(c1)OCO2)NC.O=S(=O)(O)O (centres unmarked) [Sulfate 1]
[4]; 40° C./75% RH overnight
  Physical Stability: Deliquesced

## CCC(Cc1ccc2c(c1)OCO2)NC.O=C(O)CCC(=O)O (centres unmarked) [MBDB succinate Form 2]
[3]
  Hygroscopicity by DVS: moderately hygroscopic
  Post-DVS XRPD (form change): no form change
[4]; after 1 day at 40° C./75% RH
  Physical Stability: No visible change

## CCC(Cc1ccc2c(c1)OCO2)NC.O=C(O)CCC(=O)O (single isomer, unassigned) [Succinate 1]
[4]; 40° C./75% RH overnight
  Physical Stability: Tacky solids

## CNC(C)Cc1ccc2c(c1)OCO2.O=P(O)(O)O.O=P(O)(O)O (centres unmarked) [Phosphate]
[1]
  Hygroscopic at 75% RH?: no evidence of hygroscopicity and No

## CCC(Cc1ccc2c(c1)OCO2)NC.Cc1ccc(S(=O)(=O)O)cc1 (centres unmarked) [Tosylate 1]
[4]; 40° C./75% RH overnight
  Physical Stability: No change
